Measurements published in PubChem BioAssay (NCI).
Where “and” joins values, the source holds several entries; their conditions need not be identical. Equal entries are not always repeated.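 In this assay, cells in 96-well plates receive the compound at five concentrations for 48 hours. Endpoints are linearly interpolated between the surrounding concentrations. GI50 = concentration required for 50% inhibition of growth. TGI is the concentration that stops growth completely.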

Columns and labels:
Assay in all cases: growth of human tumour cells (NCI), 48 h
RPMI-8226 leukemia = system: RPMI-8226 leukemia
MDA-MB-435 = system: MDA-MB-435
HCC-2998 colon = system: HCC-2998 colon
HT29 colon = system: HT29 colon
OVCAR-5 ovarian = system: OVCAR-5 ovarian
PC-3 prostate = system: PC-3 prostate
MDA-MB-231 breast = system: MDA-MB-231 breast
BT-549 breast = system: BT-549 breast
HCT-116 colon = system: HCT-116 colon
NCI-H522 lung = system: NCI-H522 lung

In the case of `CC[n+]1oc(C(=O)c2ccc(Cl)cc2)c(-c2ccccc2)c1-c1ccccc1.[Cl][Fe]([Cl])([Cl])[Cl]`, the GI50 (RPMI-8226 leukemia) is reported as 19.6 µM, the TGI (RPMI-8226 leukemia) is reported as 54.2 µM and the GI50 (MDA-MB-435) is reported as 22.3 µM. The TGI (MDA-MB-435) was 80.5 µM, the GI50 (HCC-2998 colon) was 60.8 µM and the TGI (HCC-2998 colon) was > 100 µM. For the same molecule, the GI50 (HT29 colon) was 41.8 µM, the TGI (HT29 colon) was > 100 µM and the GI50 (OVCAR-5 ovarian) was 82.4 µM. The TGI (OVCAR-5 ovarian) was > 100 µM, the GI50 (PC-3 prostate) was 31.4 µM and the TGI (PC-3 prostate) was > 100 µM. For the same molecule, the GI50 (MDA-MB-231 breast) was 36.5 µM and the TGI (MDA-MB-231 breast) was > 100 µM.
With `COc1ccc(S(=O)(=O)N2CCN(C(=O)c3ccc(-c4ccccc4)cc3)CC2C(=O)NO)cc1` (stereo not drawn) the GI50 (RPMI-8226 leukemia) was > 100 µM, the TGI (RPMI-8226 leukemia) was > 100 µM and the GI50 (BT-549 breast) was 2.48 µM. The TGI (BT-549 breast) was 6.69 µM, the GI50 (HCT-116 colon) was 2.92 µM and 25.5 µM and the GI50 (HT29 colon) was 0.889 µM. For the same molecule, the TGI (HT29 colon) was 12.5 µM, the TGI (OVCAR-5 ovarian) was 12.5 µM and > 100 µM and the GI50 (PC-3 prostate) was 2.01 µM and 17.9 µM.
In the case of `Cc1nc(N)nc2c1CCC(O)S2` (stereo not drawn), the GI50 (RPMI-8226 leukemia) is reported as 21.3 µM, the TGI (RPMI-8226 leukemia) is reported as > 100 µM and the GI50 (MDA-MB-435) is reported as 4.51 µM. It also gave a TGI (MDA-MB-435) of 18.7 µM, a GI50 (HCT-116 colon) of 2.39 µM and a TGI (HCT-116 colon) of 6.04 µM. For the same molecule, the GI50 (HCC-2998 colon) was 9.46 µM, the TGI (HCC-2998 colon) was 22.2 µM and the GI50 (HT29 colon) was 4.24 µM. It also gave a TGI (HT29 colon) of 17.3 µM, a GI50 (NCI-H522 lung) of 17 µM and a TGI (NCI-H522 lung) of 34 µM. The GI50 (OVCAR-5 ovarian) was 20.7 µM, the TGI (OVCAR-5 ovarian) was 74.3 µM and the GI50 (PC-3 prostate) was 3.52 µM. The TGI (PC-3 prostate) was 44.7 µM, the GI50 (MDA-MB-231 breast) was 10.2 µM and the TGI (MDA-MB-231 breast) was 32.8 µM.
Work on `O=S(=O)(NC1=NCCN1C(=S)SN1CCn2c1nsc2=S)c1cccc2ccccc12` yielded a GI50 (RPMI-8226 leukemia) of 3.7 µM, a TGI (RPMI-8226 leukemia) of 67.8 µM and a GI50 (MDA-MB-435) of 17.4 µM. It also gave a TGI (MDA-MB-435) of 39.9 µM, a GI50 (HCT-116 colon) of 14.8 µM and a TGI (HCT-116 colon) of 37.2 µM. It also gave a GI50 (HCC-2998 colon) of 21.4 µM, a TGI (HCC-2998 colon) of 53.2 µM and a GI50 (HT29 colon) of 31.4 µM. For the same molecule, the TGI (HT29 colon) was > 100 µM, the GI50 (NCI-H522 lung) was 12.2 µM and the TGI (NCI-H522 lung) was 36.1 µM. For the same molecule, the GI50 (OVCAR-5 ovarian) was 61 µM, the TGI (OVCAR-5 ovarian) was > 100 µM and the GI50 (PC-3 prostate) was 29.2 µM. For the same molecule, the TGI (PC-3 prostate) was > 100 µM, the GI50 (MDA-MB-231 breast) was 14.7 µM and the TGI (MDA-MB-231 breast) was 32.5 µM.
In the case of `O=S(=O)(NCCNc1nccc(-c2c(-c3ccc(F)c(O)c3)nc3sccn23)n1)c1ccc(F)cc1`, the GI50 (RPMI-8226 leukemia) is reported as 1.78 µM, the TGI (RPMI-8226 leukemia) is reported as 4.24 µM and the GI50 (BT-549 breast) is reported as 2.99 µM. For the same molecule, the TGI (BT-549 breast) was 23.4 µM, the GI50 (MDA-MB-435) was 0.824 µM and the TGI (MDA-MB-435) was 4.99 µM. It also gave a GI50 (HCC-2998 colon) of 4.45 µM, a TGI (HCC-2998 colon) of 17.2 µM and a GI50 (HT29 colon) of 4.19 µM. It also gave a TGI (HT29 colon) of 31.1 µM, a GI50 (NCI-H522 lung) of 3.31 µM and a TGI (NCI-H522 lung) of 19.2 µM. The GI50 (OVCAR-5 ovarian) was 4.37 µM, the TGI (OVCAR-5 ovarian) was 85.7 µM and the GI50 (MDA-MB-231 breast) was 2.23 µM. The TGI (MDA-MB-231 breast) was > 100 µM.
Work on `O=C(O)c1ccc(CI)cc1` yielded a TGI (RPMI-8226 leukemia) of 45.8 µM, a TGI (MDA-MB-435) of 54.9 µM and a TGI (HCT-116 colon) of 28.1 µM. The TGI (HCC-2998 colon) was 35.6 µM, the TGI (HT29 colon) was 37.9 µM and the TGI (NCI-H522 lung) was 11.8 µM. It also gave a TGI (OVCAR-5 ovarian) of 34.5 µM, a TGI (PC-3 prostate) of 30.3 µM and a TGI (MDA-MB-231 breast) of 37.6 µM.
`C=CCNc1nc2c(s1)C(=O)c1ccccc1C2=O` showed a TGI (RPMI-8226 leukemia) of 17.4 µM, a TGI (MDA-MB-435) of 3.31 µM and a TGI (HCT-116 colon) of 13.6 µM. It also gave a TGI (HCC-2998 colon) of 35.3 µM, a TGI (HT29 colon) of 50.2 µM and a TGI (NCI-H522 lung) of 21.4 µM. It also gave a TGI (OVCAR-5 ovarian) of 37.5 µM, a TGI (PC-3 prostate) of 30.3 µM and a TGI (MDA-MB-231 breast) of 23.8 µM.
`NS(=O)(=O)c1ccc(-n2nc3c(c2-c2ccc(Cl)cc2)Cc2ccccc2-3)cc1` showed a GI50 (RPMI-8226 leukemia) of 10.4 µM, a TGI (RPMI-8226 leukemia) of 24.7 µM and a GI50 (MDA-MB-435) of 17.8 µM. It also gave a TGI (MDA-MB-435) of 32.6 µM, a GI50 (HCT-116 colon) of 4.06 µM and a TGI (HCT-116 colon) of 21.3 µM. For the same molecule, the GI50 (HCC-2998 colon) was 18.3 µM, the TGI (HCC-2998 colon) was 35.7 µM and the GI50 (HT29 colon) was 15.4 µM. The TGI (HT29 colon) was 98.1 µM, the GI50 (NCI-H522 lung) was 5.63 µM and the TGI (NCI-H522 lung) was 19.3 µM. For the same molecule, the GI50 (OVCAR-5 ovarian) was 24.2 µM, the TGI (OVCAR-5 ovarian) was 57.4 µM and the GI50 (PC-3 prostate) was 14 µM. The TGI (PC-3 prostate) was 27.9 µM, the GI50 (MDA-MB-231 breast) was 14.8 µM and the TGI (MDA-MB-231 breast) was 30.1 µM.
`COc1ccc(-c2cs/c(=N\N=C\c3ccc(O)cc3O)n2/N=C/c2ccc(O)cc2O)cc1` was tested, and the GI50 (BT-549 breast) was 1.54 µM, the TGI (BT-549 breast) was 3.59 µM and the GI50 (MDA-MB-435) was 1.69 µM. The TGI (MDA-MB-435) was 3.48 µM, the GI50 (HCT-116 colon) was 1.57 µM and the TGI (HCT-116 colon) was 3.04 µM. It also gave a GI50 (HCC-2998 colon) of 2.07 µM, a TGI (HCC-2998 colon) of 4.38 µM and a GI50 (HT29 colon) of 2.41 µM. The TGI (HT29 colon) was 5.26 µM, the GI50 (NCI-H522 lung) was 1.88 µM and the TGI (NCI-H522 lung) was 4.68 µM. The GI50 (OVCAR-5 ovarian) was 2.37 µM, the TGI (OVCAR-5 ovarian) was 5.18 µM and the GI50 (MDA-MB-231 breast) was 2.04 µM. The TGI (MDA-MB-231 breast) was 5.51 µM.
`CC(=O)c1ccc2c(c1)C1C=CCC1[C@H](c1cc3c(cc1Br)OCO3)N2` (stereo partly drawn) gave a GI50 (RPMI-8226 leukemia) of 0.58 µM, a TGI (RPMI-8226 leukemia) of 13.2 µM and a GI50 (BT-549 breast) of 0.716 µM. For the same molecule, the TGI (BT-549 breast) was 13.8 µM, the GI50 (HCT-116 colon) was 1.18 µM and the TGI (HCT-116 colon) was 14.3 µM. It also gave a GI50 (HCC-2998 colon) of 3.84 µM, a TGI (HCC-2998 colon) of 10.6 µM and a GI50 (HT29 colon) of 0.653 µM. For the same molecule, the TGI (HT29 colon) was 13 µM, the GI50 (NCI-H522 lung) was 0.84 µM and the TGI (NCI-H522 lung) was 4.87 µM. For the same molecule, the GI50 (OVCAR-5 ovarian) was 3.01 µM, the TGI (OVCAR-5 ovarian) was > 38.8 µM and the GI50 (PC-3 prostate) was 0.636 µM. The TGI (PC-3 prostate) was 7.04 µM, the GI50 (MDA-MB-231 breast) was 1.3 µM and the TGI (MDA-MB-231 breast) was 11.4 µM.
`O=C1c2ccccc2-[n+]2ccc3c([nH]c4ccccc43)c21` was tested, and the TGI (RPMI-8226 leukemia) was 0.468 µM, the TGI (BT-549 breast) was 4.92 µM and the TGI (MDA-MB-435) was 0.329 µM. The TGI (HCT-116 colon) was 0.51 µM, the TGI (HCC-2998 colon) was 0.484 µM and the TGI (HT29 colon) was 1.78 µM. It also gave a TGI (NCI-H522 lung) of 1.3 µM, a TGI (OVCAR-5 ovarian) of 1.48 µM and a TGI (PC-3 prostate) of 1.08 µM.
`CCOC(=O)C(Cc1c[nH]c2c(N(CCO)CCO)cccc12)(NC(C)=O)C(=O)OCC` was tested, and the GI50 (BT-549 breast) was 564 µM, the TGI (BT-549 breast) was > 1000 µM and the GI50 (MDA-MB-435) was 167 µM. For the same molecule, the TGI (MDA-MB-435) was 311 µM, the GI50 (HCT-116 colon) was 412 µM and the TGI (HCT-116 colon) was > 1000 µM. For the same molecule, the GI50 (HCC-2998 colon) was > 1000 µM, the TGI (HCC-2998 colon) was > 1000 µM and the GI50 (HT29 colon) was 140 µM. For the same molecule, the TGI (HT29 colon) was 417 µM, the GI50 (NCI-H522 lung) was > 1000 µM and the TGI (NCI-H522 lung) was > 1000 µM. For the same molecule, the GI50 (OVCAR-5 ovarian) was > 1000 µM, the TGI (OVCAR-5 ovarian) was > 1000 µM and the GI50 (PC-3 prostate) was 409 µM. For the same molecule, the TGI (PC-3 prostate) was > 1000 µM, the GI50 (MDA-MB-231 breast) was 692 µM and the TGI (MDA-MB-231 breast) was > 1000 µM.
For `COc1ccc(NC(=O)CSC2=C(Nc3cccc(Br)c3)C(=O)N(Cc3ccccc3)C2=O)cc1Cl`, the GI50 (RPMI-8226 leukemia) was 4.14 µM, the TGI (RPMI-8226 leukemia) was > 100 µM and the GI50 (BT-549 breast) was 51.6 µM. The TGI (BT-549 breast) was > 100 µM, the GI50 (MDA-MB-435) was > 100 µM and the TGI (MDA-MB-435) was > 100 µM. For the same molecule, the GI50 (HCT-116 colon) was 32.8 µM, the TGI (HCT-116 colon) was > 100 µM and the GI50 (HT29 colon) was > 100 µM. The TGI (HT29 colon) was > 100 µM, the GI50 (NCI-H522 lung) was 6.85 µM and the TGI (NCI-H522 lung) was 82.2 µM. The GI50 (PC-3 prostate) was 8.82 µM, the TGI (PC-3 prostate) was > 100 µM and the GI50 (MDA-MB-231 breast) was > 100 µM. The TGI (MDA-MB-231 breast) was > 100 µM.
